{"source": "patent US7122666B2", "about": "“Heteroaryl-substituted pyrrole derivatives, their preparation and their therapeutic uses” (Sankyo Company, Limited, priority 1999, dated 2006)", "key": {"[1]": {"tested_on": "IL-1β production in human whole blood", "test": "Inhibition of the production of IL-1β in vitro in human whole blood (Test Examples 1 and 1′)", "assay_type": "cell-based", "conditions": "Table 8′, lipopolysaccharide 10 μg/ml, 6 hours at 37° C., plasma IL-1β by ELISA, least squares, read-out: Inhibitory Effect on IL-1β Production (in vitro) IC50", "protocol": "(§1) Inhibition of the Production of the Cytokines IL-1β and TNFα in Vitro in Human Whole Blood\n(§2) This test was performed according to the method of Hartman, et al. [D. A. Hartman, S. J. Ochalski and R. P. Carlson; The effects of anti-inflammatory and antiallergic drugs on cytokine release after stimulation of human whole blood by lipopolysaccharide and zymosan A: Inflamm. Res., 44, 269 (1995)].\n(§3) Peripheral blood samples were collected in the presence of heparin from healthy adult volunteers. 1000 μl of whole blood were added to an Eppendorf tube to which 2 μl of a dimethyl sulfoxide solution of the test compound had been added in advance, after which 10 μl of lipopolysaccharide (E. coli 026: B6 origin, Difco) were added as a stimulant (final concentration of said lipopolysaccharide: 10 μg/ml). This was mixed well and then incubated for 6 hours at 37° C. in the presence of 5% CO2. At the end of the incubation, the mixture was cooled to 4° C. to stop the reaction, followed immediately by centrifuging for 5 minutes at 14,000 rpm to separate and collect the supernatant plasma. The IL-1β and TNFα produced and released into the plasma were measured using a commercially available enzyme immunoassay (ELISA) kit [Cayman (IL-1β) and Genzyme (TNFα)]. The procedure was also repeated in the absence of test compound. The inhibitory effect [IC50 (μM)] on the production of IL-1β and TNFα was determined from the amounts of the cytokines produced in the presence and absence of the test compound.\n(§4) Inhibition of the Production of the Cytokines IL-1β and TNFα In Vitro in Human Whole Blood\nas §3, with “O26:” for “026:”, “plasma” for “plasma.”, “kits” for “kit”, “determined by the method of least squares” for “determined”"}, "[2]": {"tested_on": "TNFα production in human whole blood", "test": "Inhibition of the production of TNFα in vitro in human whole blood (Test Examples 1 and 1′)", "assay_type": "cell-based", "conditions": "Table 7′, lipopolysaccharide 10 μg/ml, 6 hours at 37° C., plasma TNFα by ELISA, least squares, read-out: Inhibitory Effect on TNFα Production (in vitro) IC50", "protocol": "as §1, §2, §3, §4\nas §3, with “O26:” for “026:”, “plasma” for “plasma.”, “kits” for “kit”, “determined by the method of least squares” for “determined”"}}, "data": [{"molecule": "CC1C[C@H]2C=C(c3c[nH]c(-c4ccc(F)cc4)c3-c3ccncc3)CCN2C1", "note": "(stereo partly drawn) [Example 16′, 2-(4-Fluorophenyl)-4-[(8aS)-2-methyl-1,2,3,5,6,8a-hexahydroindolizin-7-yl]-3-(pyridin-4-yl)1H-pyrrole]", "values": [{"measurement": "IC50", "setting": "[1]", "value": 1.7, "unit": "nM"}, {"measurement": "IC50", "setting": "[2]", "value": 2.2, "unit": "nM"}]}]}
